Legend:
hERG K+ channel = target: T1, hERG K+ channel (Homo sapiens, UniProt Q12809); test: hERG channel inhibition assay (patch-clamp, CHO-hERG cells); format: cell-based; conditions: for IC50 / IC20: CHO-hERG cells, whole-cell patch-clamp; for IC20: human, CHO cells stably expressing hERG; for hERG IC20/TLR7 IC50 / hERG IC20/TLR8 IC50 / hERG IC20/TLR9 IC50: safety ratio
T1 construct: expressed in transfected cells; host or cells: CHO (Chinese hamster ovary)
Procedure: The hERG K^+ channels were cloned in humans and stably expressed in a CHO (Chinese hamster ovary) cell line. CHOhERG cells were used for patch-clamp (voltage-clamp, whole-cell) experiments. Cells were stimulated by a voltage pattern to activate hERG channels and conduct IKhERG Currents (rapid delayed outward rectifier potassium current of the hERG channel). After the cells were stabilized for a few minutes, the amplitude and kinetics of IKhERG were recorded at a stimulation frequency of 0.1 Hz (6 bpm). Thereafter, the test compound was added to the preparation at increasing concentrations. For each concentration, an attempt was made to reach a steady-state effect, usually, this was achieved within 3-10 min at which time the next highest concentration was applied. The amplitude and kinetics of IKhERG are recorded in each concentration of the drug which were compared to the control values (taken as 100%). (references: Redfe W S, Carlsson L, Davis A S, Lynch W G, MacKenzie I, Palethorpe S, Siegl P K, Strang I, Sullivan A T, Wallis R, Camm A J, Hammond T G. 2003; Relationships between preclinical cardiac electrophysiology, clinical QT interval prolongation and torsade de pointes for a broad range of drugs: evidence for a provisional safety margin in drug development. Cardiovasc. Res. 58:32-45, Sanguinetti M C, Tristani-Firouzi M. 2006; hERG potassium channels and cardiac arrhythmia. Nature 440:463-469, Webster R, Leishman D, Walker D. 2002; Towards a drug concentration effect relationship for QT prolongation and torsades de pointes. Curr. Opin. Drug Discov. Devel. 5:116-26).

TLR9 = target: T2, TLR9 (Homo sapiens, UniProt Q9NR96); test: Human PBMC cell-based assay; set-up: These cells express TLR7, TLR8, or TLR9, and therefore are natural responders to respective ligand stimulation; endogenous in cells; host or cells: human PBMC from healthy donor whole blood; conditions: CpG ODN 2216 at 1 μM, read-out: hPBMC/TLR9 IC50
T2 sequence (Q9NR96 26-1032): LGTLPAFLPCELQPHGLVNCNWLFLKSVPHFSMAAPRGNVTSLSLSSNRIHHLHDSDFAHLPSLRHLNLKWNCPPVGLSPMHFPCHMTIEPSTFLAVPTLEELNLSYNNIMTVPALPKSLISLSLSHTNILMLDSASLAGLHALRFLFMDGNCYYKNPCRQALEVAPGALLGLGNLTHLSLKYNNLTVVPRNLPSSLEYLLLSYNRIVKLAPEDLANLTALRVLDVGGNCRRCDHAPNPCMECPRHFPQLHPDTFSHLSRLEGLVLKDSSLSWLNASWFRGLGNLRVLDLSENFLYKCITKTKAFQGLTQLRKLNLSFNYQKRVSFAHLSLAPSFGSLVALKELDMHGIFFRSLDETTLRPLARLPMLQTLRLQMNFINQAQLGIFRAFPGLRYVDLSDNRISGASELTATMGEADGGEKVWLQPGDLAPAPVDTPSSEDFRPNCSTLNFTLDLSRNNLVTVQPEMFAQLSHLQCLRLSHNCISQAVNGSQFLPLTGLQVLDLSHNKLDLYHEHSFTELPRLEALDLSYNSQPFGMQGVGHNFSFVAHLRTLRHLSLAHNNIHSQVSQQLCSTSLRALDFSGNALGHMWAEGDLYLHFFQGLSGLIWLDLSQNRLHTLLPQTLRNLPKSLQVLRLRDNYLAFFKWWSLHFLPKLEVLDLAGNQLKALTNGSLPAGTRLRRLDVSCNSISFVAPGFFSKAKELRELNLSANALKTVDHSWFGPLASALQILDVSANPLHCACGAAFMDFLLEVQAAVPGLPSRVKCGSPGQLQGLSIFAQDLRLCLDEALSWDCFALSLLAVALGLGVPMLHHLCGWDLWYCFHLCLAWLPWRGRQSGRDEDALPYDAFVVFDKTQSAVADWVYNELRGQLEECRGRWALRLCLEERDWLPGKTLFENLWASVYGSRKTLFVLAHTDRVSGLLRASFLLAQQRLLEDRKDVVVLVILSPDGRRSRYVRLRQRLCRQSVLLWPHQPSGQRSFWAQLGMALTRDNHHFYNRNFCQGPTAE
Description: Unlike the HEK reporter cell lines, human peripheral blood mononuclear cell (PBMC) represents primary human immune cells in blood mainly consisting of lymphocytes, monocytes, and dendritic cells. These cells express TLR7, TLR8, or TLR9, and therefore are natural responders to respective ligand stimulation. Upon activation of these TLRs, PBMCs secrete similar cytokines and chemokines in vitro and in vivo, and therefore the in vitro potency of a TLR7/8/9 antagonist in human PBMC is readily translatable to its pharmacodynamics response in vivo.
Human peripheral blood mononuclear cells (PBMC) were isolated from freshly-drawn lithium-heparinized (Lithium Heparin Plus blood Collection tube, BD Vacutainer®) healthy donor whole blood by density gradient (Ficoll-Paque™ PLUS, GE Healthcare life Sciences). Briefly, […] was diluted with 25 mL PBS (without Ca^2+, Mg^2+) in a 50 mL conical tube with porous barrier (Leucosep tube, Greiner bio-one), where 15.5 mL Ficoll-Paque was under laid after spinning. Tubes were centrifuged for 20 minutes at 800×g (1946 rpm) with the brake in the off position, and PBMC were collected from the buffy coat. Cells were then washed twice in PBS, and red blood cells were lysed by suspension in 2 mL (Red Blood Cell Lysis Buffer, Alfa Aesar) for 5-10 minutes at room temperature. After a final wash in PBS, PBMC were resuspended at a final concentration of 2×10^6 cells/mL in RPMI-1640 media with GlutaMAX™ (Gibco) supplemented with 10% Fetal Bovine Serum (Sigma) and plated at 150 μL/well (3×10^5 cells/well) in tissue culture treated round bottom 96-well plates (Corning Incorporated). Antagonist compounds (compounds of this invention) solubilized and serial diluted in 100% DMSO were added in duplicate to cells to yield a final concentration of 1% DMSO (v/v). PBMC were incubated with antagonist compounds for 30 minutes at 37° C., 5% CO2 before adding various TLR agonist reagents in 48 μL complete media per well as follows (final concentrations indicated): CpG ODN 2216 (InvivoGen) at 1 μM for TLR9, ORN 06/LyoVec (InvivoGen) at […] for TLR8 and R848 (InvivoGen) at 1 μg/mL for TLR7 and TLR8. PBMC were incubated overnight at 37° C. with 5% C02. Cell culture supernatants were collected, and levels of various human cytokines were assessed by Luminex assay (ProcartaPlex™ Multiplex Immunoassay, Invitrogen) or ELISA procedure according to the manufacturer's recommended protocol (eBioscience, ThermoFisher Scientific). Viability of the cells was also checked with Cell Viability Assay (CellTiter Glo® Luminescent Cell Viability Assay, Promega).

T1 sequence (Q12809 whole entry): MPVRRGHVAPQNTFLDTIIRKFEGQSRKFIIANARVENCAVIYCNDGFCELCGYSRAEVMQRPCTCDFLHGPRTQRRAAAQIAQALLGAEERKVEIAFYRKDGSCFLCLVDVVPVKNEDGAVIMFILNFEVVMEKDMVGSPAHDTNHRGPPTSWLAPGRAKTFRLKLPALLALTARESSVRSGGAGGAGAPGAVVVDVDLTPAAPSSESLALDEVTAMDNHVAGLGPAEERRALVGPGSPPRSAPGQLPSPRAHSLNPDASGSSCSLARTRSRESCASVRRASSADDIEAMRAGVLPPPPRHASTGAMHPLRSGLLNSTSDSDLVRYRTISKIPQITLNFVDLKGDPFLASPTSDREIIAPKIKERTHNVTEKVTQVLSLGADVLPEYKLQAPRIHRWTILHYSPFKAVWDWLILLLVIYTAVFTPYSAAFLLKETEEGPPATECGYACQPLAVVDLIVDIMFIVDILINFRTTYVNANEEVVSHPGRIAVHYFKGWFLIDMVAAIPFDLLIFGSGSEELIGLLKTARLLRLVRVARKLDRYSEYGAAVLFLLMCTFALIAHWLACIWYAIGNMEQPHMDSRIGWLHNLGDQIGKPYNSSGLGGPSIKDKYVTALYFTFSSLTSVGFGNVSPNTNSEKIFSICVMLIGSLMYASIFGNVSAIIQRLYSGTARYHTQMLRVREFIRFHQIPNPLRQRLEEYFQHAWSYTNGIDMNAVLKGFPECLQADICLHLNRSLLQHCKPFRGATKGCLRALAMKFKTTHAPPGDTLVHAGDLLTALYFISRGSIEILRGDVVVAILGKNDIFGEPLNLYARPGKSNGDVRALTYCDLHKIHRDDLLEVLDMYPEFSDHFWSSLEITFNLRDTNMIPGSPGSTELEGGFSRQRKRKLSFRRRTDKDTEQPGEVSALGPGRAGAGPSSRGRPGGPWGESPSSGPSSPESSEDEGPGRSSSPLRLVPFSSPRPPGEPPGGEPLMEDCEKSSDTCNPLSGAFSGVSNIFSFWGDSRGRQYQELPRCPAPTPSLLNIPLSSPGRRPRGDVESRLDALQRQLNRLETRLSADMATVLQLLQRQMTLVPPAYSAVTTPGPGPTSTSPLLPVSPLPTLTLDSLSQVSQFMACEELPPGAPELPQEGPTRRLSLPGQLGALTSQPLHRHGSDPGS

| IC50 (TLR9) | SMILES | IC50 (hERG K+ channel) | IC20 (hERG K+ channel) | hERG IC20/TLR7 IC50 (hERG K+ channel) | hERG IC20/TLR8 IC50 (hERG K+ channel) | hERG IC20/TLR9 IC50 (hERG K+ channel) |
| --- | --- | --- | --- | --- | --- | --- |
| 0.33 µM | CO[C@@H]1CN(c2cnc([C@@H]3CCN(c4cc(C)nc5c4cnn5C)C[C@H]3C)c(C)c2)C[C@H]1N [Example 26, (3R,4R)-1-[6-[(3S,4R)-1-(1,6-dimethylpyrazolo[3,4-b]pyridin-4-yl)-3-methyl-4-piperidyl]-5-methyl-3-pyridyl]-4-methoxy-pyrrolidin-3-amine] | > 20 µM | > 10 µM | >833.3 | >714.3 | >91.7 |
| 0.52 µM | Cc1cc(N2CC[C@@H](c3ncc(N4CCOC[C@@H](N)C4)cc3C)[C@H](C)C2)c2cnn(C)c2n1 [Example 28, (6S)-4-[6-[(3S,4R)-1-(1,6-dimethylpyrazolo[3,4-b]pyridin-4-yl)-3-methyl-4-piperidyl]-5-methyl-3-pyridyl]-1,4-oxazepan-6-amine] | > 20 µM | 6.4 µM | 914.3 | 3200.0 | 50.8 |
| 0.71 µM | COC[C@H]1CN(c2cnc([C@@H]3CCN(c4cc(C)nc5c4cnn5C)C[C@H]3C)c(C)c2)CCN1 [Example 29, 4-[(3S,4R)-4-[5-[(3R)-3-(methoxymethyl)piperazin-1-yl]-3-methyl-2-pyridyl]-3-methyl-1-piperidyl]-1,6-dimethyl-pyrazolo[3,4-b]pyridine] | > 10 µM | 4.4 µM | 880.0 | 550.0 | 18.5 |
| 0.32 µM | Cc1cc(N2CC[C@@H](c3ncc(N4CC(C)(N)C4)cc3C)[C@H](C)C2)c2cnn(C)c2n1 [Example 32, 1-[6-[(3S,4R)-1-(1,6-dimethylpyrazolo[3,4-b]pyridin-4-yl)-3-methyl-4-piperidyl]-5-methyl-3-pyridyl]-3-methyl-azetidin-3-amine] | > 10 µM | 4.4 µM | 550.0 | 293.3 | 23.7 |
| 0.146 µM | Cc1cc(N2CC[C@@H](c3ncc(N4C[C@H]5NCCO[C@@H]5C4)cc3C)[C@H](C)C2)c2cnn(C)c2n1 [Example 33, (4aR,7aR)-6-[6-[(3S,4R)-1-(1,6-dimethylpyrazolo[3,4-b]pyridin-4-yl)-3-methyl-4-piperidyl]-5-methyl-3-pyridyl]-3,4,4a,5,7,7a-hexahydro-2H-pyrrolo[3,4-b][1,4]oxazine] | > 10 µM | 4.1 µM | 372.7 | 1366.7 | 51.9 |
| 0.87 µM | Cc1cc(N2CC[C@H](c3ccc(N4CCNCC4)cn3)[C@@H](C)C2)c2cnn(C)c2n1 [Example 35, 1,6-dimethyl-4-[(3R,4S)-3-methyl-4-(5-piperazin-1-yl-2-pyridyl)-1-piperidyl]pyrazolo[3,4-b]pyridine] | > 10 µM | 4.4 µM | 733.3 | 488.9 | 27.8 |
| 0.54 µM | Cc1cc(N2CC[C@H](c3ccc(N4CCOC[C@@H](N)C4)cn3)[C@@H](C)C2)c2cnn(C)c2n1 [Example 40, (6S)-4-[6-[(3R,4S)-1-(1,6-dimethylpyrazolo[3,4-b]pyridin-4-yl)-3-methyl-4-piperidyl]-3-pyridyl]-1,4-oxazepan-6-amine] | > 20 µM | 5.9 µM | 655.6 | 842.9 | 34.1 |
| 0.47 µM | Cc1cc(N2CC[C@H](c3ccc(N4CC(C)(N)C4)cn3)[C@@H](C)C2)c2cnn(C)c2n1 [Example 43, 1-[6-[(3R,4S)-1-(1,6-dimethylpyrazolo[3,4-b]pyridin-4-yl)-3-methyl-4-piperidyl]-3-pyridyl]-3-methyl-azetidin-3-amine] | > 20 µM | > 10 µM | >625.0 | >1666.7 | >49.3 |

Source: patent publication US20240360126A1, “PYRAZOLO[3,4-B]PYRIDINE COMPOUNDS FOR THE TREATMENT OF AUTOIMMUNE DISEASE” (Hoffmann-La Roche Inc., priority 2021, published 2024)
